Laboratory results reported in patent JP2015020973A, “クロマン化合物塩酸塩の結晶形態及びその製造法” (Nissan Chemical Corp, priority 2013, dated 2015).

Assays:
[1] = Test Example 2: dissolution test, JP Pharmacopoeia dissolution test 2nd fluid (pH 6.8), paddle method; type: physicochemical; settings: dissolution test 2nd fluid pH 6.8, 37 °C, paddle 100 rpm, after 120 min
[2] = Test Example 1: dissolution test, JP Pharmacopoeia dissolution test 1st fluid (pH 1.2), paddle method; type: physicochemical; settings: dissolution test 1st fluid pH 1.2, 37 °C, paddle 100 rpm, at 60 min

dissolution rate [1] | dissolution rate [2] | SMILES
~80% | 90% | COc1cc2c(cc1NS(C)(=O)=O)OC(C)(C)[C@H](O)[C@H]2NCCc1ccccc1.Cl (relative stereo) [A形結晶, N−{(3R*,4S*)−3−ヒドロキシ−6−メトキシ−2,2−ジメチル−4−(フェネチルアミノ)クロマン−7−イル}メタンスルホンアミド塩酸塩]
~65% | 90% | COc1cc2c(cc1NS(C)(=O)=O)OC(C)(C)[C@H](O)[C@H]2NCCc1ccccc1 (relative stereo) [フリー体, N−{(3R*,4S*)−3−ヒドロキシ−6−メトキシ−2,2−ジメチル−4−(フェネチルアミノ)クロマン−7−イル}メタンスルホンアミド]
